Experimental data from patent publication US6410480B1, “Herbicidally active 3-hydroxy-4-aryl-5-oxopyrazoline derivatives” (Syngenta Crop Protection, Inc., priority 1998, dated 2002).

How the values were obtained:
Assay type in all cases: in vivo
Setaria [1] = assay: Example B4: post-emergence herbicidal action of compounds of the invention; design: key: 1=complete damage; 9=no effect; Ratings of 1 to 4 (in particular 1 to 3) mean a good to very good herbicidal action; conditions: 3- to 6-leaf stage, 250 g of active substance/ha, 3 weeks after application, scale 1-9
Experimental: (§1) Monocotyledonous and dicotyledonous weeds are grown in standard soil in plastic pots under greenhouse conditions. The test substances are applied at the 3- to 6-leaf stage of the test plants. The test substances are applied (500 l of water/ha) as an aqueous suspension (prepared using a 25% wettable powder (Example F3, b)) or as an emulsion (prepared using a 25% emulsion concentrate (Example F1, c)) at an application rate of 250 g of active substance/ha. 3 weeks after the application, evaluation is carried out using a nine-level scale of ratings (1=complete damage, 9=no effect). Ratings of 1 to 4 (in particular 1 to 3) mean a good to very good herbicidal action. Test plants: Avena (Ave), Lolium (Lol), Setaria (Set).

Avena [2] = assay: as above; design: key: 1=complete damage; 9=no effect; Ratings of 1 to 4 (in particular 1 to 3) mean a good to very good herbicidal action; conditions: 3- to 6-leaf stage, 250 g of active substance/ha, 3 weeks after application, scale 1-9
Experimental: as §1

Lolium [3] = assay: as above; design: key: 1=complete damage; 9=no effect; Ratings of 1 to 4 (in particular 1 to 3) mean a good to very good herbicidal action; conditions: 3- to 6-leaf stage, 250 g of active substance/ha, 3 weeks after application, scale 1-9
Experimental: as §1

all of the weeds tested = assay: Experimental comparison with the prior art: herbicidal action, pre- and post-emergence, overall statement; conditions: 500 g of active substance/ha, against all of the weeds tested
Description: The following compounds were examined for their herbicidal activity: Monocotyledonous and dicotyledonous weeds are sown in standard soil in plastic pots. Immediately after sowing, the test substances are applied (500 l of water/ha) as an aqueous suspension (prepared using a 25% wettable powder (Example F3, b)) or as an emulsion (prepared using a 25% emulsion concentrate (Example F1, c)). The application rate is 500 g of active substance/ha. The test plants are subsequently grown under optimum conditions in a greenhouse. 3 weeks after the application, evaluation is carried out using a nine-level scale of ratings (1=complete damage, 9=no effect). Ratings of 1 to 4 (in particular 1 to 3) mean a good to very good herbicidal action. Test plants: Alopecurus (Alo), Avena (Ave), Lolium (Lot), Setaria (Set), Panicum (Pan), Sorghum (Sor), Digitaria (Dig), Echinocloa (Ech) and Brachiaria (Bra). Monocotyledonous and dicotyledonous weeds are grown in standard soil in plastic pots under greenhouse conditions. The test substances are applied at the 3- to 6-leaf stage of the test plants. The test substances are applied (500 l of water/ha) as an aqueous suspension (prepared using a 25% wettable powder (Example F3, b)) or as an emulsion (prepared using a 25% emulsion concentrate (Example F1, c)) at an application rate of 500 g of active substance/ha. […]

Setaria [4] = assay: Example B1: pre-emergence herbicidal action, comparison with prior art; conditions: 500 g of ai/ha, 3 weeks after application, scale 1-9
Description: (§2) Monocotyledonous and dicotyledonous weeds are sown in standard soil in plastic pots. Immediately after sowing, the test substances are applied (500 l of water/ha) as an aqueous suspension (prepared using a 25% wettable powder (Example F3, b)) or as an emulsion (prepared using a 25% emulsion concentrate (Example F1, c)). The application rate is 500 g of active substance/ha. The test plants are subsequently grown under optimum conditions in a greenhouse. 3 weeks after the application, evaluation is carried out using a nine-level scale of ratings (1=complete damage, 9=no effect). Ratings of 1 to 4 (in particular 1 to 3) mean a good to very good herbicidal action. Test plants: Alopecurus (Alo), Avena (Ave), Lolium (Lot), Setaria (Set), Panicum (Pan), Sorghum (Sor), Digitaria (Dig), Echinocloa (Ech) and Brachiaria (Bra).

Panicum [5] = assay: as above; conditions: 500 g of ai/ha, 3 weeks after application, scale 1-9
Description: as §2

Echinocloa [6] = assay: as above; conditions: 500 g of ai/ha, 3 weeks after application, scale 1-9
Description: as §2

Sorghum [7] = assay: as above; conditions: 500 g of ai/ha, 3 weeks after application, scale 1-9
Description: as §2

Lolium [8] = assay: as above; conditions: 500 g of ai/ha, 3 weeks after application, scale 1-9
Description: as §2

Setaria [9] = assay: Example B2: post-emergence herbicidal action, comparison with prior art; design: key: 1=complete damage; 9=no effect; Ratings of 1 to 4 (in particular 1 to 3) mean a good to very good herbicidal action; conditions: 3- to 6-leaf stage, 500 g of ai/ha, 3 weeks after application, scale 1-9
Experimental: as §1, with “500” for “250”, “plants: Alopecurus (Alo),” for “plants:”, “(Set), Panicum (Pan), Sorghum (Sor), Digitaria (Dig), Echinocloa (Ech) and Brachiaria (Bra).” for “(Set).”

Brachiaria [10] = assay: as above; design: key: 1=complete damage; 9=no effect; Ratings of 1 to 4 (in particular 1 to 3) mean a good to very good herbicidal action; conditions: 3- to 6-leaf stage, 500 g of ai/ha, 3 weeks after application, scale 1-9
Experimental: as §1, with “500” for “250”, “plants: Alopecurus (Alo),” for “plants:”, “(Set), Panicum (Pan), Sorghum (Sor), Digitaria (Dig), Echinocloa (Ech) and Brachiaria (Bra).” for “(Set).”

Avena [11] = assay: as above; design: key: 1=complete damage; 9=no effect; Ratings of 1 to 4 (in particular 1 to 3) mean a good to very good herbicidal action; conditions: 3- to 6-leaf stage, 500 g of ai/ha, 3 weeks after application, scale 1-9
Experimental: as §1, with “500” for “250”, “plants: Alopecurus (Alo),” for “plants:”, “(Set), Panicum (Pan), Sorghum (Sor), Digitaria (Dig), Echinocloa (Ech) and Brachiaria (Bra).” for “(Set).”

Panicum [12] = assay: as above; design: key: 1=complete damage; 9=no effect; Ratings of 1 to 4 (in particular 1 to 3) mean a good to very good herbicidal action; conditions: 3- to 6-leaf stage, 500 g of ai/ha, 3 weeks after application, scale 1-9
Experimental: as §1, with “500” for “250”, “plants: Alopecurus (Alo),” for “plants:”, “(Set), Panicum (Pan), Sorghum (Sor), Digitaria (Dig), Echinocloa (Ech) and Brachiaria (Bra).” for “(Set).”

Echinocloa [13] = assay: as above; design: key: 1=complete damage; 9=no effect; Ratings of 1 to 4 (in particular 1 to 3) mean a good to very good herbicidal action; conditions: 3- to 6-leaf stage, 500 g of ai/ha, 3 weeks after application, scale 1-9
Experimental: as §1, with “500” for “250”, “plants: Alopecurus (Alo),” for “plants:”, “(Set), Panicum (Pan), Sorghum (Sor), Digitaria (Dig), Echinocloa (Ech) and Brachiaria (Bra).” for “(Set).”

Sorghum [14] = assay: as above; design: key: 1=complete damage; 9=no effect; Ratings of 1 to 4 (in particular 1 to 3) mean a good to very good herbicidal action; conditions: 3- to 6-leaf stage, 500 g of ai/ha, 3 weeks after application, scale 1-9
Experimental: as §1, with “500” for “250”, “plants: Alopecurus (Alo),” for “plants:”, “(Set), Panicum (Pan), Sorghum (Sor), Digitaria (Dig), Echinocloa (Ech) and Brachiaria (Bra).” for “(Set).”

Digitaria [15] = assay: as above; design: key: 1=complete damage; 9=no effect; Ratings of 1 to 4 (in particular 1 to 3) mean a good to very good herbicidal action; conditions: 3- to 6-leaf stage, 500 g of ai/ha, 3 weeks after application, scale 1-9
Experimental: as §1, with “500” for “250”, “plants: Alopecurus (Alo),” for “plants:”, “(Set), Panicum (Pan), Sorghum (Sor), Digitaria (Dig), Echinocloa (Ech) and Brachiaria (Bra).” for “(Set).”

Lolium [16] = assay: as above; design: key: 1=complete damage; 9=no effect; Ratings of 1 to 4 (in particular 1 to 3) mean a good to very good herbicidal action; conditions: 3- to 6-leaf stage, 500 g of ai/ha, 3 weeks after application, scale 1-9
Experimental: as §1, with “500” for “250”, “plants: Alopecurus (Alo),” for “plants:”, “(Set), Panicum (Pan), Sorghum (Sor), Digitaria (Dig), Echinocloa (Ech) and Brachiaria (Bra).” for “(Set).”

Alopecurus [17] = assay: as above; conditions: 3- to 6-leaf stage, 500 g of ai/ha, 3 weeks after application, scale 1-9
Experimental: as §1, with “500” for “250”, “plants: Alopecurus (Alo),” for “plants:”, “(Set), Panicum (Pan), Sorghum (Sor), Digitaria (Dig), Echinocloa (Ech) and Brachiaria (Bra).” for “(Set).”

Brachiaria [18] = assay: Example B1: pre-emergence herbicidal action, comparison with prior art; conditions: 500 g of ai/ha, 3 weeks after application, scale 1-9
Description: as §2

Avena [19] = assay: as above; conditions: 500 g of ai/ha, 3 weeks after application, scale 1-9
Description: as §2

Alopecurus [20] = assay: as above; conditions: 500 g of ai/ha, 3 weeks after application, scale 1-9
Description: as §2

Digitaria [21] = assay: as above; conditions: 500 g of ai/ha, 3 weeks after application, scale 1-9
Description: as §2

`Cc1cc(C)c(-c2c(O)n3n(c2=O)CCOCC3)c(Br)c1` [1.078] was tested, and the “Post-emergence action, Set (rating)” value (Setaria [1]) was 4, the “Post-emergence action, Ave (rating)” value (Avena [2]) was 1 and the “Post-emergence action, Lol (rating)” value (Lolium [3]) was 1.

With `CCc1cc(Br)cc(C)c1-c1c(OC(=O)C(C)(C)C)n2n(c1=O)CCOCC2` [1.085] the “Post-emergence action, Set (rating)” value (Setaria [1]) was 2, the “Post-emergence action, Ave (rating)” value (Avena [2]) was 1 and the “Post-emergence action, Lol (rating)” value (Lolium [3]) was 2.

For `Cc1cc(Br)c(-c2c(O)n3n(c2=O)CCOCC3)c(Br)c1` [1.088], the “Post-emergence action, Set (rating)” value (Setaria [1]) was 3, the “Post-emergence action, Ave (rating)” value (Avena [2]) was 4 and the “Post-emergence action, Lol (rating)” value (Lolium [3]) was 4.

For `Cc1cc(C)c(C2C(=O)N3CCOCCN3C2=O)c(C)c1` [Compound No. 1.01], the “herbicidal action compared with compound A of the prior art” value (all of the weeds tested) was “considerably better herbicidal action”.

`CCc1cc(C)cc(CC)c1-c1c(O)n2n(c1=O)CCOCC2` [Compound No. 1.007] was tested, and the “Post-emergence action, Set (rating)” value (Setaria [1]) was 1, the “Post-emergence action, Ave (rating)” value (Avena [2]) was 1 and the “Post-emergence action, Lol (rating)” value (Lolium [3]) was 1.

In the case of `Cc1cc(C)c(C2C(=O)N3CCCCCN3C2=O)c(C)c1` [compound A, reference compound], the “Pre-emergence action, Set (rating)” value (Setaria [4]) is reported as 3, the “Pre-emergence action, Pan (rating)” value (Panicum [5]) is reported as 7 and the “Pre-emergence action, Ech (rating)” value (Echinocloa [6]) is reported as 5. For the same molecule, the “Pre-emergence action, Sor (rating)” value (Sorghum [7]) was 6, the “Pre-emergence action, Lol (rating)” value (Lolium [8]) was 4 and the “Post-emergence action, Set (rating)” value (Setaria [9]) was 4. The “Post-emergence action, Bra (rating)” value (Brachiaria [10]) was 2, the “Post-emergence action, Ave (rating)” value (Avena [11]) was 2 and the “Post-emergence action, Pan (rating)” value (Panicum [12]) was 2. The “Post-emergence action, Ech (rating)” value (Echinocloa [13]) was 1, the “Post-emergence action, Sor (rating)” value (Sorghum [14]) was 3 and the “Post-emergence action, Dig (rating)” value (Digitaria [15]) was 5. The “Post-emergence action, Lol (rating)” value (Lolium [16]) was 5, the “Post-emergence action, Alo (rating)” value (Alopecurus [17]) was 5 and the “Pre-emergence action, Bra (rating)” value (Brachiaria [18]) was 3. For the same molecule, the “Pre-emergence action, Ave (rating)” value (Avena [19]) was 7, the “Pre-emergence action, Alo (rating)” value (Alopecurus [20]) was 5 and the “Pre-emergence action, Dig (rating)” value (Digitaria [21]) was 7.
